The results in this text go back to US20220324835A1 (Nurix Therapeutics, Inc., priority 2018, published 2022).

A word on the IC50: it is the concentration needed to halve the response being measured.

The target in experiment [1] is T1, Cbl-b (Homo sapiens, UniProt Q13191). Description: Cbl-b activity assay (Cbl-b inhibition assay), TR-FRET of Cbl-b interaction with UbcH5B-Ub. Format: biochemical. Conditions: assay buffer with 100 mM NaCl, 60 nM Src kinase; read-out: Cbl-b activity IC50. The procedure, abridged:
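TR-FRET readout of Cbl-b binding to Bodipy-fluorescein N-terminally labeled Ub conjugated to UbcH5B C85K, measured with compound present. After compound incubation, 60 nM Src kinase with 1 mM ATP and 5 mM MgCl2 (final) was added for 1.5 h, then a further 1 h incubation; asterisked values used 50 mM NaCl buffer and 30 nM Src.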
In general terms: TR-FRET usually uses a lanthanide donor and a delayed reading to cut background.

Experiment [2] deals with T1, Cbl-b. Nature of the experiment: Cbl-b inhibition assay (Cbl-b activity assay, FRET, Biological Example 1; 100 mM NaCl, 60 nM Src kinase). Format: biochemical. Conditions: upper bound stated in text lists; read-out: IC50 values in the Cbl-b inhibition assay of Biological Example 1. In outline: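 TR-FRET assay using N-terminal biotinylated Avi-tagged Cbl-b bound to streptavidin-terbium, Src kinase for Cbl-b phosphorylation, and UbcH5B irreversibly conjugated to Bodipy-Fluorescein-ubiquitin. Phosphorylated Cbl-b binds UbcH5B-Ub, bringing the fluorophores together; inhibition is read as loss of FRET signal.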

The subject of experiment [3] is T-cell. Nature of the experiment: IL-2 secretion from T-cells stimulated with anti-CD3 antibody alone (Biological Example 2). Format: cell-based, human. Conditions: Homo sapiens, T-cell; 1 μM Cbl-b inhibitor; fold change over baseline (anti-CD3/anti-CD28 stimulated T-cells without inhibitor); read-out: IL-2 secretion Anti-CD3 stimulation.
Experiment [4] concerns T-cell. Nature of the experiment: CD25 cell surface staining on T-cells co-stimulated with anti-CD3 and anti-CD28 antibody (Biological Example 2). Format: cell-based, human. Conditions: Homo sapiens, T-cell, fold change over baseline (anti-CD3/anti-CD28 stimulated T-cells without inhibitor), read-out: CD25 staining Anti-CD3/Anti-CD28 stimulation; for fold induction at 0.3 µM: 0.3 μM Cbl-b inhibitor; for fold induction at 1 µM: 1 μM Cbl-b inhibitor. In outline: (§1)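 No assay protocol given; T-cells stimulated with anti-CD3 alone or anti-CD3 plus anti-CD28, with or without Cbl-b inhibitor. Activation read as IL-2 secretion or CD25 surface staining, expressed as fold over baseline from uninhibited cells […].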

Experiment [5] relates to T-cell. Nature of the experiment: IL-2 secretion from T-cells co-stimulated with anti-CD3 and anti-CD28 antibody (Biological Example 2). Conditions: Homo sapiens, T-cell, fold change over baseline (anti-CD3/anti-CD28 stimulated T-cells without inhibitor), read-out: IL-2 secretion Anti-CD3/Anti-CD28 stimulation; for fold induction at 0.3 µM: 0.3 μM Cbl-b inhibitor; for fold induction at 1 µM: 1 μM Cbl-b inhibitor. Format: cell-based, human. In outline: as §1

The subject of experiment [6] is T-cell. Description: CD25 cell surface staining on T-cells stimulated with anti-CD3 antibody alone (Biological Example 2). Conditions: Homo sapiens, T-cell; 1 μM Cbl-b inhibitor; fold change over baseline (anti-CD3/anti-CD28 stimulated T-cells without inhibitor); read-out: CD25 staining Anti-CD3 stimulation. Format: cell-based, human.

Each structure is given as a SMILES string.

T1 sequence (Q13191 36-427): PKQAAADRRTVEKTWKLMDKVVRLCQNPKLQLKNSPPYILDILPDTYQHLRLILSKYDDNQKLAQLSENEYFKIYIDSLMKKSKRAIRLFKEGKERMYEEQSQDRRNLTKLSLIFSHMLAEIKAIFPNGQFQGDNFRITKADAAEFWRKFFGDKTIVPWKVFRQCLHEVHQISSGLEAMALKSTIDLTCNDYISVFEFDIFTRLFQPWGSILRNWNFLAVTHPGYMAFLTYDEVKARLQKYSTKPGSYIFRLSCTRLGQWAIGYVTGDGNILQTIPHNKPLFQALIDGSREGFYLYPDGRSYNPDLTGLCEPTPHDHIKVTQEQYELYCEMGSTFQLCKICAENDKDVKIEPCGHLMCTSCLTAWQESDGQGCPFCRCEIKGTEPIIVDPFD

On to `Cn1cnnc1[C@@H](F)C1(c2cccc(N3Cc4c(cc(CN5CCCCC5)cc4C(F)(F)F)C3=O)c2)COC1` [Example 674a, (S)-2-(3-(3-(fluoro(4-methyl-4H-1,2,4-triazol-3-yl)methyl)oxetan-3-yl)phenyl)-6-(piperidin-1-ylmethyl)-4-(trifluoromethyl)isoindolin-1-one], for which the IC50 at Cbl-b [1] is less than 100 nM; on Cbl-b [2] it was not above 100 nM. In addition, the fold induction at 1 µM in the experiment on T-cell [3] is 0.101 to 0.15; in the experiment on T-cell [4], 1.51 to 1.75; in the experiment with T-cell [5], more than 7.5; in the experiment on T-cell [6], more than 1. Also, the figures for the fold induction at 0.3 µM with T-cell [4] and with T-cell [5] were 1.31 to 1.5 and more than 7.5, respectively.

For `Cn1cnnc1[C@H](F)C1(c2cccc(N3Cc4c(cc(CN5CCCCC5)cc4C(F)(F)F)C3=O)c2)COC1` [Example 674b, (R)-2-(3-(3-(fluoro(4-methyl-4H-1,2,4-triazol-3-yl)methyl)oxetan-3-yl)phenyl)-6-(piperidin-1-ylmethyl)-4-(trifluoromethyl)isoindolin-1-one], the concentration for half-maximal inhibition (IC50) at Cbl-b [1] is less than 100 nM; on Cbl-b [2] it was not above 100 nM. Besides, the fold induction at 1 µM was more than 0.201 with T-cell [3], 1.01 to 1.3 with T-cell [4], more than 7.5 with T-cell [5] and more than 1 with T-cell [6]. In addition, the fold induction at 0.3 µM with T-cell [4] is 1.01 to 1.3; in the experiment with T-cell [5], more than 7.5.

For `Cn1cnnc1[C@@H](F)C1(c2cccc(N3Cc4c(cc(CN5C6CCCC5CC6)cc4C(F)(F)F)C3=O)c2)COC1` [Example 675a, 6-((8-azabicyclo[3.2.1]octan-8-yl)methyl)-2-(3-(3-((S)-fluoro(4-methyl-4H-1,2,4-triazol-3-yl)methyl)oxetan-3-yl)phenyl)-4-(trifluoromethyl)isoindolin-1-one], the IC50 is less than 100 nM at Cbl-b [1] and not above 100 nM at Cbl-b [2]. In addition, the fold induction at 1 µM is 0.101 to 0.15 in the experiment with T-cell [3], 1.31 to 1.5 in the experiment on T-cell [4], 5 to 7.5 in the experiment with T-cell [5] and more than 1 with T-cell [6]. The fold induction at 0.3 µM in the experiment on T-cell [4] is 1.01 to 1.3; in the experiment with T-cell [5] it was 2.51 to 5.

In the case of `Cn1cnnc1[C@H](F)C1(c2cccc(N3Cc4c(cc(CN5C6CCCC5CC6)cc4C(F)(F)F)C3=O)c2)COC1` [Example 675b, 6-((8-azabicyclo[3.2.1]octan-8-yl)methyl)-2-(3-(3-((R)-fluoro(4-methyl-4H-1,2,4-triazol-3-yl)methyl)oxetan-3-yl)phenyl)-4-(trifluoromethyl)isoindolin-1-one], the results for the IC50 at Cbl-b [1] and at Cbl-b [2] were less than 100 nM and not above 100 nM, respectively. The fold induction at 1 µM in the experiment with T-cell [3] was more than 0.201; with T-cell [4], 1.31 to 1.5; with T-cell [5], more than 7.5; in the experiment with T-cell [6], more than 1. For the same molecule, the fold induction at 0.3 µM was 1.31 to 1.5 with T-cell [4] and more than 7.5 with T-cell [5].

`Cc1cc(C(=O)Nc2cccc(C3(C(F)(F)c4nncn4C)COC3)c2)nc(C2CC2)n1` [Example 676, 2-cyclopropyl-N-(3-(3-(difluoro(4-methyl-4H-1,2,4-triazol-3-yl)methyl)oxetan-3-yl)phenyl)-6-methylpyrimidine-4-carboxamide]: the IC50 on Cbl-b [1] is less than 100 nM; at Cbl-b [2], not above 100 nM. Further, the fold induction at 1 µM in the experiment on T-cell [3] was 0.101 to 0.15; in the experiment with T-cell [4], 1.31 to 1.5; with T-cell [5], 5 to 7.5; with T-cell [6], 0.801 to 1. The fold induction at 0.3 µM in the experiment on T-cell [4] lay within 1.01 to 1.3; in the experiment with T-cell [5], 2.51 to 5.

Turning to `Cc1cc2c(c(C3CC3)n1)CN(c1cccc(C3(C(F)(F)c4nncn4C)COC3)c1)C2=O` [Example 677, 4-cyclopropyl-2-(3-(3-(difluoro(4-methyl-4H-1,2,4-triazol-3-yl)methyl)oxetan-3-yl)phenyl)-6-methyl-2,3-dihydro-1H-pyrrolo[3,4-c]pyridin-1-one], the 50% inhibitory concentration (IC50) is 301 to 1000 nM on Cbl-b [1] and not above 1000 nM at Cbl-b [2]. In addition, the fold induction at 1 µM is 0.051 to 0.1 in the experiment with T-cell [3], 1.01 to 1.3 in the experiment on T-cell [4], 1.01 to 2.5 in the experiment with T-cell [5] and 0.601 to 0.8 with T-cell [6]. Further, the results for the fold induction at 0.3 µM in the experiment on T-cell [4] and in the experiment with T-cell [5] were 1.01 to 1.3 and 1.01 to 2.5, respectively.

With `Cn1cnnc1C(F)(F)C1(c2cccc(N3Cc4c(cc(CN5CC(F)C5)cc4C(F)(F)F)C3=O)c2)COC1` [Example 679, 2-(3-(3-(difluoro(4-methyl-4H-1,2,4-triazol-3-yl)methyl)oxetan-3-yl)phenyl)-6-((3-fluoroazetidin-1-yl)methyl)-4-(trifluoromethyl)isoindolin-1-one], the IC50 was less than 100 nM on Cbl-b [1] and not above 100 nM on Cbl-b [2]. Also, the fold induction at 1 µM in the experiment on T-cell [3] was 0.101 to 0.15; with T-cell [4], 1.01 to 1.3; in the experiment on T-cell [5], 5 to 7.5; in the experiment on T-cell [6], more than 1. Further, the fold induction at 0.3 µM in the experiment on T-cell [4] was in the range of 1.01 to 1.3; in the experiment on T-cell [5], 2.51 to 5.

Consider `C[C@H](Cc1nncn1C)c1cc(C2CC2)nc(N2Cc3c(cccc3C(F)(F)F)C2=O)c1` [Example 680, (R)-2-(6-cyclopropyl-4-(1-(4-methyl-4H-1,2,4-triazol-3-yl)propan-2-yl)pyridin-2-yl)-4-(trifluoromethyl)isoindolin-1-one], for which the IC50 at Cbl-b [1] is less than 100 nM; on Cbl-b [2] it was not above 100 nM. In addition, the fold induction at 1 µM lay within 0.101 to 0.15 with T-cell [3], 1.01 to 1.3 in the experiment with T-cell [4], 2.51 to 5 in the experiment on T-cell [5] and 0.801 to 1 with T-cell [6]. Further, the fold induction at 0.3 µM with T-cell [4] is 1.01 to 1.3; with T-cell [5], 1.01 to 2.5.

Take `C[C@H](Cc1nncn1C)c1cc(N2Cc3c(cccc3C(F)(F)F)C2=O)nc(C2(C)CC2)c1` [Example 681, (R)-2-(4-(1-(4-methyl-4H-1,2,4-triazol-3-yl)propan-2-yl)-6-(l-methylcyclopropyl)pyridin-2-yl)-4-(trifluoromethyl)isoindolin-1-one]: the IC50 is 301 to 1000 nM on Cbl-b [1] and not above 1000 nM at Cbl-b [2]. Moreover, the fold induction at 1 µM in the experiment on T-cell [3] was 0.051 to 0.1; with T-cell [4] it was 1.01 to 1.3; in the experiment on T-cell [5], 1.01 to 2.5; in the experiment on T-cell [6] it was less than 0.6. The fold induction at 0.3 µM is 1.01 to 1.3 in the experiment with T-cell [4] and 1.01 to 2.5 with T-cell [5].

As to `C[C@H](Cc1nncn1C)c1cc(-c2cncs2)nc(N2Cc3c(cccc3C(F)(F)F)C2=O)c1` [Example 682, (R)-2-(4-(1-(4-methyl-4H-1,2,4-triazol-3-yl)propan-2-yl)-6-(thiazol-5-yl)pyridin-2-yl)-4-(trifluoromethyl)isoindolin-1-one], the IC50 at Cbl-b [1] was 301 to 1000 nM; at Cbl-b [2], not above 1000 nM. Moreover, the fold induction at 1 µM in the experiment on T-cell [3] is 0.051 to 0.1; in the experiment on T-cell [4], 1.01 to 1.3; in the experiment on T-cell [5], 1.01 to 2.5; with T-cell [6], less than 0.6. Besides, the fold induction at 0.3 µM in the experiment with T-cell [4] was 1.01 to 1.3; with T-cell [5], 1.01 to 2.5.
